From patent publication US20090022806A1, “Nanoparticle and polymer formulations for thyroid hormone analogs, antagonists and formulations and uses thereof” (priority 2006, published 2009)

Key:
[1] = test system: phosphorylated ERK1/2 in ECV304 endothelial cells; assay: MAPK (ERK1/2) activation in ECV304 cells, nuclear pERK1/2 immunoblot; type: cell-based; settings: T4 10^−7 mol/L, 15 minutes to 6 hours
Procedure: ECV304 endothelial cells were cultured in M199 medium with 0.25% hormone-depleted serum 13 for 2 days. […] Nuclear fractions were pre-pared from all samples by our method reported previously, the proteins separated by polyacrylamide gel electrophoresis, and transferred to membranes for immunoblotting with antibody to phosphorylated ERK 1/2.

[2] = test system: chick chorioallantoic membrane (CAM); assay: Chick chorioallantoic membrane (CAM) assay of angiogenesis; type: in vivo; settings: 10^−7-10^−9 M
Procedure: Chorioallantoic membrane (CAM) Model of Angiogenesis: In vivo Neovascularization was examined by methods described previously. 9-12 Ten-day-old chick embryos were purchased from SPAFAS (Preston, Conn.) and incubated at 37° C. with 55% relative humidity. A hypodermic needle was used to make a small hole in the shell concealing the air sac, and a second hole was made on the broad side of the egg, directly over an avascular portion of the embryonic membrane that was identified by candling. A false air sac was created beneath the second hole by the application of negative pressure at the first hole, causing the CAM to separate from the shell. A window approximately 1.0 cm 2 was cut in the shell over the dropped CAM with a small-crafts grinding wheel (Dremel, division of Emerson Electric Co.), allowing direct access to the underlying CAM. FGF2 (1 μg/mL) was used as a standard proangiogenic agent to induce new blood vessel branches on the CAM of 10-day-old embryos. Sterile disks of No. 1 filter paper (Whatman International) were pretreated with 3 mg/mL cortisone acetate and 1 mmol/L PTU and air dried under sterile conditions. Thyroid hormone, hormone analogues, FGF2 or control solvents, and inhibitors were then applied to the disks and the disks allowed to dry. The disks were then suspended in PBS and placed on growing CAMs. […] At 24 hours, the MAPK cascade inhibitor PD 98059 was also added to CAMs topically by means of the filter disks.
After incubation at 37° C. with 55% relative humidity for 3 days, the CAM tissue directly beneath each filter disk was resected from control and treated CAM samples. Tissues were washed 3× with PBS, placed in 35-mm Petri dishes (Nalge Nunc), and examined under an SV6 stereomicroscope (Zeiss) at ×50 magnification. Digital images of CAM sections exposed to filters were collected using a 3-charge-coupled device color video camera system (Toshiba) and analyzed with Image-Pro software (Media Cybernetics). The number of vessel branch points contained in a circular region equal to the area of each filter disk were counted. One image was counted in each CAM preparation, and findings from 8 to 10 CAM preparations were analyzed for each treatment condition (thyroid hormone or analogues, FGF2, FGF2 antibody, PD 98059). In addition, each experiment was performed 3 times. The resulting angiogenesis index is the mean±SEM of new branch points in each set of samples.
Ten-day-old chick embryos were purchased £tom SPAFAS (Preston, Conn.) and were incubated at 37° C. with 55% relative humidity. A hypodermic needle was used to make a small hole in the blunt end of the egg and a second hole was made on the broad side of the egg, directly over an avascular portion of the embryonic membrane. Mild suction was applied to the first hole to displace the air sac and drop the CAM away from the shell. Using a Dremel model craft drill (Dremel, Racine, Wis.), a approx. 1.0 cm^2 window was cut in the shell over the false air sac, allowing access to the CAM. Sterile disks of No. 1 filter paper (Whatman, Clifton, N.J.) were pretreated with 3 mg/ml cortisone acetate and 1 mMm propylthiouracil and air dried under sterile conditions. […] The disks were then suspended in PBS and placed on growing CAMS. After incubation for 3 days, the CAM beneath the filter disk was resected and rinsed with PBS. Each membrane was placed in a 35 mm Petri dish and examined under an SV6 stereo-microscope at 50× magnification. Digital images were captured and analyzed with Image-Pro software (Mediacybemetics). The number of vessel branch points contained in a circular region equal to the filter disk were counted. One image from each of 8-10 CAM preparations for each treatment condition was counted, and in addition each experiment was performed 3 times.
Ten-day-old chick embryos were purchased from SPAFAS (Preston, Conn.) and were incubated at 37° C. with 55% relative humidity. Chick CAM assays were performed as previously described.

[3] = test system: platelets; assay: Collagen-induced platelet aggregation and secretion in whole blood (impedance); type: cell-based, human; settings: 10-100 nM
Text: Platelet aggregation and de-granulation in whole blood using Impedance Technique: The Model 560 Whole-Blood Aggregometer and the associated Aggro-Link Software from the Chrono-Log Corporation were used in this study. Two electrodes are placed in diluted blood and an electrical impulse is sent from one to the other. As the platelets aggregate around the electrodes, the Chrono-Log measures the impedance of the electrical signal in ohms of resistance.
The blood was kept on a rocker to extend the life of the platelets, and experiments were done within 5 hours of phlebotomy.
Procedure: For the control, 500 microliters of whole blood, 500 microliters of 0.9% saline, and a magnetic stir bar were mixed into a cuvette, and heated for five minutes to 37 degrees Celsius. Sub-threshold aggregation was induced with 5 microliters of 1-2 μg/ml Collagen, which the Aggregometer measured for 6-7 minutes. […] Ingerman-Wojenski C, Smith J B, Silver M J. Evaluation of electrical aggregometry: comparison with optical aggregometry, secretion of ATP, and accumulation of radiolabeled platelets. J Lab Clin Med. 1983 January; 101(1):44-52.

[4] = test system: human dermal fibroblast cells; assay: In vitro 3D wound healing assay of human dermal fibroblast cells; type: cell-based; settings: T4 between 0.1 μM and 1.0 μM
Procedure: Step 1: Prepare contracted collagen gels: • 1) Coat 24-well plate with 350 ul 2% BSA at RT for 2 hr, • 2) 80% confluent NHDF (normal human dermal fibroblast cells, Passage 5-9) are trypsinized and neutralized with growth medium, centrifuge and wash once with PBS • 3) Prepare collagen-cell mixture, mix gently and always on ice:
• 4) Aspire 2% BSA from 24 well plate, add collagen-cell mixture 350 ul/well, and incubate the plate in 37° C. CO2 incubator. • 5) After 1 hr, add DMEM+5% FBS medium 0.5 ml/well, use a 10 ul tip Detach the collagen gel from the edge of each well, then incubate for 2 days. The fibroblast cells will contract the collagen gel Step 2: Prepare 3D fibrin wound clot and embed wounded collagen culture • 1) Prepare fibrinogen solution (1 mg/ml) with or without testing regents. 350 ul fibrinogen solution for each well in eppendorf tube.
• 2) Cut each contracted collagen gel from middle with scissors. Wash the gel with PBS and transfer the gel to the center of each well of 24 well plate • 3) Add 1.5 ul of human thrombin (0.25 U/ul) to each tube, mix well and then add the solution around the collagen gel, the solution will polymerize in 10 mins. After 20 mins, add DMEM+1% (or 5%) FBS with or without testing agent, 450 ul/well and incubate the plate in 37° C. CO2 incubator for up to 5 days. Take pictures on each day.

[5] = test system: EC migration toward the extracellular matrix protein vitronectin; assay: Cellular migration assay toward vitronectin (chemotaxis chamber); type: cell-based; settings: hormone 0.1 uM in upper chamber, vitronectin 25 ug in lower chamber
Procedure: These assays were performed using a Neuroprobe 96 well disposable chemotaxis chamber with an 8 μm pore size. This chamber allowed for quantitation of cellular migration towards a gradient of either vitronectin or osteopontin. Cultured cells were removed following a standardized method using EDTA/Trypsin (0.01%/0.025%). Following removal, the cells were washed twice and resuspended (2×10^6/ml) in EBM (Endothelial cell basal media, Clonetics Inc.). Add either vitronectin or osteopontin (33 μl) at 0.0125-100 μg/ml to the lower wells of a disposable chemotaxis chamber, and then assemble using the preframed filter. The cell suspension (45 μl) was added to a polypropylene plate containing 5 μl of test agent at different concentrations and incubated for 10 minutes at 22° C. Add 25 μl of cell/test agent suspension to the upper filter wells then incubate overnight (22 hours at 37° C.) in a humidified cell culture incubator. After the overnight incubation, non-migrated cells and excess media were gently removed using a 12 channel pipette and a cell scraper. The filters were then washed twice in PBS (no Ca^+2 or Mg^+2) and fixed with 1% formaldehyde. Membranes of migrated cells were permeated with Triton X-100 (0.2%) then washed 2-3 times with PBS. […] Chemotaxis was quantitatively determined by fluorescence detection using a Cytofluor II (530 excitation/590 emission).

N[C@@H](Cc1cc(I)c(Oc2cc(I)c(O)c(I)c2)c(I)c1)C(=O)O [T4, L-thyroxine]
time of maximal phosphorylation and nuclear translocation of ERK1/2 [1]: 30 min
promotion of generation of new blood vessels from existing vessels [2]: two- to three-fold
enhancing platelet aggregation and secretion (de-granulation) [3]: effective
wound healing (outmigrating cells), Day 3 [4]: increases wound healing
Mean EC Migration (Fluorescence Units) + SD [5]: 13,083 ± 276 Fluorescence Units
